Assay [1] deals with T1, GFP-PPARβ LBD (Homo sapiens, UniProt Q03181).
T1 construct: incubated with recombinant GFP-PPARα LBD and GFP-PPARβ LBD proteins
T1 sequence (Q03181 211-439 limits assumed): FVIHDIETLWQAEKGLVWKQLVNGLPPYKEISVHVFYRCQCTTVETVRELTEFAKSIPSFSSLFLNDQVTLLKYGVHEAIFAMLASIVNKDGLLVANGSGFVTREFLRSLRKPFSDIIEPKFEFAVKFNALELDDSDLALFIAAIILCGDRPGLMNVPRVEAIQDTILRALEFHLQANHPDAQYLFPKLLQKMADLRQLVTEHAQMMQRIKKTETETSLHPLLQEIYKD
Briefly: GFP-affinity purification of cerebellar lysate with GFP-PPARβ LBD, then EI-GCMS. It counts as binding. The conditions noted are these: PPARβ pulled-down cerebellar lysate.
Protocol: To test that, we performed a GFP-based affinity purification procedure (25,29) in which cerebellar lysate of wild-type cerebellum was incubated with recombinant GFP-PPARα LBD and GFP-PPARβ LBD proteins, then passed through GFP column, eluted, fractionated with chloroform-methanol procedure, and finally analyzed for small molecules in the chloroform fraction with electron ionization gas chromatography (EI-GCMS) method as described elsewhere (29). […] A part of the eluted fraction was electrophoresed and stained with Coomassie blue to nullify the loading error of GFP-PPARαLBD and GFP-PPARβ LBD used for affinity purification.
GCMS analyses: Ligand detection: A JEOL GCMate II (JEOL USA, Peabody Mass.) mass spectrometer was used in ligand detection experiments. The gas chromatograph (GC) was an Agilent 6890Plus (Wilmington Del.) equipped with a G1513A auto-injector with 100 vial sample tray connected to a G1512A controller. The gas chromatography column was a fused silica capillary column with a nonpolar 5% phenyl 95% dimethylpolysiloxane phase (Agilent HP-5 ms), 30 meters long, 0.25 mm internal diameter, 0.25 μm film thickness. The carrier gas was Helium (99.9995% Research Grade) run through a STG triple filter (Restek Corp.) at a constant flow rate 1.1 mL/min. […]

Assay [2] has as its target T2, GFP-PPARα LBD (Homo sapiens, UniProt Q07869).
T2 construct: incubated with recombinant GFP-PPARα LBD and GFP-PPARβ LBD proteins
T2 sequence (Q07869 239-466 limits assumed): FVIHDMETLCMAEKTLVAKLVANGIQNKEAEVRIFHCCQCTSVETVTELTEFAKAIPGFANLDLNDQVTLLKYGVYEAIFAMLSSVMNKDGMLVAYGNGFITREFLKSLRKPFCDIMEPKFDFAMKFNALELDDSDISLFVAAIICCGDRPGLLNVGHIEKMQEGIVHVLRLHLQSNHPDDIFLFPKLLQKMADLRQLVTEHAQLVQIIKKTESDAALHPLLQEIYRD
Briefly: GFP-affinity purification of cerebellar lysate with GFP-PPARα LBD, then EI-GCMS. The conditions noted are these: PPARα pulled-down cerebellar lysate. It counts as binding. The source says:
Identification of unique cerebellar ligands of PPARβ: PPARβ regulates the expression of myelin genes in vitro in cultured oligodendrocytes (19). However, it is not known if PPARβ regulates the expression of these genes in cerebellum, one of the heavily myelinated regions of the brain. To test the expression of myelin proteins, first we performed dual immunofluorescence analyses of myelin marker MBP together with PPARβ in the cerebellar tissue of wild-type (n=3), Pparb-null (n=3) and Ppara-null (n=3) mice. […] Moreover, DAB immunostaining of MBP and immunoblot analyses of other myelin genes including PLP and MOG have corroborated that PPARβ indeed is involved in the expression of myelin genes in cerebellum. […] To test that, we performed a GFP-based affinity purification procedure (25,29) in which cerebellar lysate of wild-type cerebellum was incubated with recombinant GFP-PPARα LBD and GFP-PPARβ LBD proteins, then passed through GFP column, eluted, fractionated with chloroform-methanol procedure, and finally analyzed for small molecules in the chloroform fraction with electron ionization gas chromatography (EI-GCMS) method as described elsewhere (29). […] Accordingly, we detected two matching bands of both GFP-PPARαLBD and GFP-PPARβLBD, both having mol. wt. of 64 kDa, negating the possibility of unequal loading of sample in MS column. […]

The target in assay [3] is T3, GFPflpparβ (Mus musculus, UniProt P35396).
T3 construct: host or cells: Pparb-null mouse primary OPCs (lentiviral transduction)
T3 sequence (P35396 1-440): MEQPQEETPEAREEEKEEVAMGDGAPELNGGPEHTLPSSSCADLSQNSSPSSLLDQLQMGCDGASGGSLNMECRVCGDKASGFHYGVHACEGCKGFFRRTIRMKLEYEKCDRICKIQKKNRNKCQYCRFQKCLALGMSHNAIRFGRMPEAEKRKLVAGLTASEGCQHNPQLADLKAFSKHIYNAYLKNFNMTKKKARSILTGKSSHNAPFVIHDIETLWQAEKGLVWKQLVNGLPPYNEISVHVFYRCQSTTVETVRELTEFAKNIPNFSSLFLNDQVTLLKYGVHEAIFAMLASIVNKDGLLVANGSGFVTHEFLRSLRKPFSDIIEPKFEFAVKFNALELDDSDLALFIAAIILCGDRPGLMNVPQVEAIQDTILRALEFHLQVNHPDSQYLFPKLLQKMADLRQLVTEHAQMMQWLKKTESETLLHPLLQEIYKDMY
Briefly: GFP-affinity purification and GCMS of Pparb-null OPCs transduced with GFPflpparβ. It counts as binding. The source says:
Therefore, next, we wanted to confirm these interactions in vitro in a cell-bound system. To test that, Pparb-null mouse primary OPCs were isolated from P1 murine neonates, infected with viral particles of GFP, GFPflpparb, GFPV304Mpparb, GFPH412Lpparb constructs for 48 hrs. After that, OPCs were homogenized, passed through the GFP-affinity column, eluted, fractionated with chloroform-methanol, and finally analyzed with GCMS to quantify these ligands. […] Throughout these analyses, we used dodecane as an internal standard.
Sample preparation: After treatment, mouse primary OPCs were homogenized in ice-cold nondetergent hypotonic buffer [10 mM HEPES (pH 7.9), 1.5 mM MgCl2, 10 mM KCl, 100 mM DTT, protease and phosphatase inhibitor cocktail]. After 10 min of additional incubation in the hypotonic buffer, the homogenate was centrifuged at 8,000 g at 4° C. for 10 min. […] The organic phase was collected, evaporated in the speedvac, reconstituted with 30 μL chloroform, and finally analyzed with GCMS. […] After that, the eluate was collected from the column with 5M NaCl solution, concentrated with PD-10 desalting column and analyzed for GCMS.

Assay [4] deals with mouse primary OPCs. Briefly: Double immunofluorescence (NG2/MBP, A2B5/PLP): differentiation of OPCs to oligodendrocytes. As to conditions: 1 μM DBB, 0.5 μM DBP, 0.5 μM MePA, 24 hrs. The format is cell-based. The method, then: (§1) FIG. 1A-1T. The role of DBB, DBP and MePA in the differentiation of OPC into oligodendrocytes and myelination. […] Briefly, mouse primary OPCs were treated with different concentrations of molecules for 1 hr, lysed and measured for DNA probe binding activity of PPARβ. […] Benzene was included as negative control. **p<0.01 vs. control for PLP, MOG, MBP, and CNPase. Results are mean±SD of three independent experiments. (FIG. 1G) Immunoblot followed by (FIG. 1H) relative densitometric analyses of PLP and MBP in mouse primary OPCs treated with increasing concentrations of DBB for 18 hrs. Band intensity was measured with image J software and then normalized with respective actin band. *p<0.05 (=0.041) vs. PLP control and *p<0.05 (=0.026) vs. MBP control. […] (N) Mean fluorescence intensity (MFI) of MBP was measured from total 15 cells per group with three cells from 5 different images per group. […] (FIG. 1Q) Mean fluorescence intensity (MFI) of MBP was measured from total 15 cells per group with three cells from 5 different images per group. […] (FIG. 1T) Numbers of MBP-ir cells of different treatment groups were counted per sq.mm of nanofiber matrix and presented as a histogram. […]
DBB, DBP and MePA stimulate the differentiation of OPC to oligodendrocytes and promote myelination. […] After that, cells were lysed and assessed for PPRE-luciferase activity. […]

Assay [5] relates to mouse primary OPCs. Briefly: Myelination of OPCs on polycaprolactone nanofiber matrix (MBP staining). It counts as cell-based. As to conditions: 1 μM DBB, 0.5 μM DBP, 0.5 μM MePA. The method, then:
as §1
The essential role of PPARβ in DBB-, DBP- and MePa-mediated differentiation of OPCs to oligodendrocytes and myelination. […] After that, PPRE-luciferase activity was assessed. […]

Assay [6] has as its target T4, PPARβ LBD (Homo sapiens, UniProt Q03181).
T4 sequence (Q03181 211-439 limits assumed): T1 sequence (Q03181 211-439 limits assumed)
In words: TR-FRET (Lanthascreen PPAR-β coactivator assay).
Protocol: The shift of each melting curve was calculated by subtracting the melting temperature (Tm) of PPARβ protein+ligand with Tm of PPARβ protein alone. Any shift (ΔTm) with more than 2° C. would be considered as significant.
TR-FRET analysis: TR-FRET assay was performed using Lanthascreen TR-FRET PPAR-β coactivator assay kit (Cat #PV4685). […] The entire reaction was set up in corning 96 well-plate followed by incubation in a dark place for 30 mins, and then analyzed “Victor X5” machine equipped with dichroic mirror. The excitation wavelength and emission wavelength were set at 340 nm and 540 nm wavelength respectively.

Where [7] appears, read: adjusted to internal standard peak.

The record followed here is US20220331267A1, “METHODS AND COMPOSITIONS FOR TREATMENT OF DEMYELINATING DISORDERS” (Rush University Medical Center, priority 2019, published 2022).

In the case of `CCCCCCCCCCCCCCCC(=O)OC` [MePA, Methyl palmitate], the “% RA” value is given as 40.678% in assay [1] and 0% in assay [2]. Moreover, the Relative abundance in assay [1] (setting [7]) amounted to 0.4068; in assay [2] (setting [7]), 0. The “Adjusted Peak Area” value in assay [3] (ligand peak area divided by dodecane peak) was 0.0108. In assay [3] (relative abundance), the RA was 1. The “differentiation of OPCs into oligodendrocytes” value in assay [4] was “stimulate the differentiation of OPCs into oligodendrocytes”. The “MBP-ir cell bodies per sq.mm of nanofiber matrix (maturation of oligodendrocytes)” value in assay [5] is “stimulated the maturation of oligodendrocytes”. Moreover, the “myelin formation on nanofibers” value in assay [5] (24 hrs) is “promote myelin formation”. The molecule also yielded an EC50 in assay [6] of 0.072 µM.
